Results taken from ChEMBL document CHEMBL4339230, “X-ray Crystallography Deciphers the Activity of Broad-Spectrum Boronic Acid β-Lactamase Inhibitors” (ACS Med Chem Lett, 2019).

Experiments:
[1] = Competitive inhibition of recombinant GES-5 expressed in Escherichia coli BL21(DE3) using nitrocefin substrate by spectrophotometry
[2] = Inhibition of Klebsiella pneumoniae KPC2 using cephalothin as reporter substrate incubated for 300 secs by spectrophotometric assay
[3] = Inhibition of bacterial NDM1 using cephalothin as reporter substrate incubated for 300 secs by spectrophotometric assay; parameters: species or system Bacteria
[4] = Inhibition of Pseudomonas aeruginosa AmpC expressed in Escherichia coli BL21(DE3) using cephalothin as reporter substrate incubated for 300 secs by spectrophotometric assay
[5] = Inhibition of bacterial OXA-24 using cephalothin as reporter substrate incubated for 300 secs by spectrophotometric assay; parameters: species or system Bacteria

Ki [2] [µM]	Ki [3] [µM]	Ki [5] [µM]	Compound	Ki [1] [µM]	Ki [4] [µM]
2.8	5.9	67	OB(O)c1cc2cc(CBr)ccc2s1	8.9	0.07
4.4	5.5	96	NCc1ccc2sc(B(O)O)cc2c1	15	0.05
–	–	–	O=CN(C=O)Cc1ccc2sc(B(O)O)cc2c1	24	0.04
4.9	3	16	O=C(O)c1cccc2cc(B(O)O)sc12	0.16	0.42
3.2	3.2	27	CC(C)(C)OC(=O)c1cccc2cc(B(O)O)sc12	17	1.3
1.4	11	64	CC(C)(C)OC(=O)Nc1cccc2cc(B(O)O)sc12	5.7	1.4
